From paper PMC9698768, “Laminaria japonica Peptides Suppress Liver Cancer by Inducing Apoptosis: Possible Signaling Pathways and Mechanism” (Marine Drugs, 2022)
Residues, ends and D or L forms follow the SMILES beside them.

How the values were obtained:
H22 = format: cell-based; settings: 48 h
Excerpt: (§1) Liver cancer cells (HuH7, HepG2, and H22) and human liver cells (HL-7702) were obtained from the Cell Bank of the Chinese Academy of Sciences (Shanghai, China). Fresh L. japonica was acquired from the South China Agricultural University (Guangzhou, China) and identified by Professor C. Wang (South China Agricultural University, Guangzhou, China). The annexin V-FITC/PI staining assay kit and propidium iodide (PI) reagents were supplied by Beyotime (Shanghai, China). Dulbecco’s modified Eagle medium (DMEM), fetal bovine serum (FBS), and penicillin-streptomycin (PS) were purchased from Gibco BRL (Life Technologies, Grand Island, NY, USA). The antibodies used in the current study were acquired from Cell Signaling Technology, Inc. (Manchester, NH, USA). Cell lines were grown in specific medium supplemented with 10% FBS. Cells were grown in a humidified atmosphere with 5% CO2 in incubators maintained at 37 °C. Balb/c mice (6–8 weeks old, 20 ± 2 g) were acquired from the Guangdong Experimental Animal Center. Ab MTT assay was used to detect the cytotoxicity activity of LJPs in vitro [42]. Briefly, 5 × 10^3 cells/well were seeded in 96-well plates, and varying concentrations of LJP were added. After 48 h, the MTT solution (5 mg/mL) was added for an additional 4 h. The absorbance was measured at 570 nm using a microplate reader (Bio-Rad; Hercules, CA, USA) after 100 μL of DMSO was added. The IC^50 values were determined by the non-linear multipurpose curve-fitting program.

HepG2 = format: cell-based, human; settings: 48 h
Excerpt: as §1

HuH7 = format: cell-based, human; settings: 48 h
Excerpt: as §1

in vitro = format: cell-based; settings: human
Excerpt: as §1, with “Briefly, 5 × 10^3 cells/well were seeded in 96-well plates, and varying concentrations of LJP were added. After 48 h, the MTT solution (5 mg/mL) was added for an additional 4 h.” left out

Compound	IC50 (H22)	IC50 (HepG2)	IC50 (HuH7)	IC50 at 48 h (in vitro)
CC(C)C[C@H](N)C(=O)N[C@@H](Cc1c[nH]c2ccccc12)C(=O)N[C@@H](CCC(=O)O)C(=O)N[C@@H](Cc1c[nH]cn1)C(=O)N[C@@H](CO)C(=O)N[C@@H](Cc1c[nH]cn1)C(=O)O [LJP-2] (H-LWEHSH-OH)	620 ± 50 µM	1710 ± 130 µM	2250 ± 220 µM	–
CC(C)C[C@H](NC(=O)[C@H](Cc1c[nH]cn1)NC(=O)[C@H](Cc1ccccc1)NC(=O)CNC(=O)[C@@H](N)CCC(=O)O)C(=O)O [LJP-1] (H-EGFHL-OH)	360 ± 30 µM	450 ± 50 µM	480 ± 50 µM	7760 ± 710 µM
CC(C)[C@H](NC(=O)[C@H](Cc1ccc(O)cc1)NC(=O)[C@@H](NC(=O)[C@H](Cc1c[nH]cn1)NC(=O)[C@H](CO)NC(=O)[C@@H](N)Cc1ccccc1)[C@@H](C)O)C(=O)O [LJP-8] (H-FSHTYV-OH)	760 ± 80 µM	630 ± 50 µM	440 ± 40 µM	–
N=C(N)NCCC[C@H](NC(=O)[C@H](Cc1c[nH]cn1)NC(=O)[C@H](CO)NC(=O)[C@@H](N)Cc1ccccc1)C(=O)NCC(=O)N[C@@H](Cc1c[nH]cn1)C(=O)O [LJP-3] (H-FSHRGH-OH)	1700 ± 150 µM	> 4000 µM	1420 ± 120 µM	–
C[C@H](NC(=O)[C@H](Cc1c[nH]c2ccccc12)NC(=O)[C@H](CO)NC(=O)[C@H](Cc1ccc(O)cc1)NC(=O)CNC(=O)[C@H](C)NC(=O)[C@@H](N)Cc1c[nH]cn1)C(=O)O [LJP-7] (H-HAGYSWA-OH)	1440 ± 120 µM	1660 ± 110 µM	2530 ± 240 µM	–
N[C@@H](Cc1ccccc1)C(=O)N[C@@H](CCC(=O)O)C(=O)N[C@@H](Cc1c[nH]cn1)C(=O)N[C@@H](CO)C(=O)NCC(=O)O [LJP-9] (H-FEHSG-OH)	510 ± 70 µM	690 ± 80 µM	530 ± 50 µM	–
C[C@@H](O)[C@H](N)C(=O)N[C@@H](Cc1ccccc1)C(=O)N[C@@H](CCCCN)C(=O)N[C@@H](Cc1c[nH]cn1)C(=O)NCC(=O)O [LJP-12] (H-TFKHG-OH)	720 ± 50 µM	600 ± 80 µM	410 ± 40 µM	–
N[C@@H](Cc1ccc(O)cc1)C(=O)N[C@@H](CCC(=O)O)C(=O)N[C@@H](Cc1c[nH]cn1)C(=O)N[C@@H](CO)C(=O)N[C@@H](Cc1c[nH]cn1)C(=O)NCC(=O)O [LJP-11] (H-YEHSHG-OH)	700 ± 70 µM	610 ± 70 µM	490 ± 50 µM	–
C[C@@H](O)[C@H](NC(=O)[C@H](CO)NC(=O)[C@@H](N)Cc1ccccc1)C(=O)N[C@@H](Cc1c[nH]cn1)C(=O)NCC(=O)NCC(=O)O [LJP-5] (H-FSTHGG-OH)	1490 ± 130 µM	2780 ± 260 µM	2440 ± 220 µM	–
NCCCC[C@H](NC(=O)[C@@H](N)Cc1ccccc1)C(=O)N[C@@H](CCC(=O)O)C(=O)N[C@@H](Cc1c[nH]cn1)C(=O)NCC(=O)N[C@@H](Cc1ccc(O)cc1)C(=O)O [LJP-6] (H-FKEHGY-OH)	> 4000 µM	3060 ± 310 µM	> 4000 µM	–
C[C@H](NC(=O)[C@@H](N)Cc1c[nH]cn1)C(=O)N[C@@H](CO)C(=O)N[C@@H](Cc1c[nH]c2ccccc12)C(=O)N[C@@H](CCC(=O)O)C(=O)N[C@@H](Cc1c[nH]cn1)C(=O)O [LJP-10] (H-HASWEH-OH)	3530 ± 340 µM	2690 ± 220 µM	3520 ± 350 µM	–
N[C@@H](CCC(=O)O)C(=O)NCC(=O)N[C@@H](Cc1c[nH]cn1)C(=O)NCC(=O)N[C@@H](Cc1ccccc1)C(=O)O [LJP-4] (H-EGHGF-OH)	680 ± 70 µM	650 ± 70 µM	620 ± 70 µM	–
